Results taken from patent US8148411B2, “2-hetarylthiazole-4-carboxamide derivatives, their preparation and use as pharmaceuticals” (Bayer Pharma Aktiengesellschaft, priority 2007, dated 2012).
pEC50: −log10 of the molar value.

These compounds were tested on TLR7 (assay: TLR-induced cytokine release in human peripheral blood mononuclear cells (PBMC), TNF-alpha by ELISA). Settings: human PBMC incubated 18 hours with test substance in presence of TLR7 ligand; TNF-alpha in supernatant by ELISA; read-out: EC50 (TNF-α TLR7).
Type: cell-based
Procedure: TLR-Induced Cytokine Release in Human “Peripheral Blood Mononuclear Cells” (PBMC)
PBMCs isolated from human whole blood are stimulated using a TLR ligand.
The cytokine determination is carried out by means of ELISA kits; a proliferation/cell metabolism determination is carried out using Alamar Blue.
For the cell preparation, about 200 ml of blood are treated with an anticoagulant (e.g. citrate Monovettes). Per Leucosep tube, 15 ml of Histopaque (room temperature, RT) are poured in and forced downwards through the inserted frit by brief initial centrifugation (one minute at 1000×g, RT). 20 ml of blood are added to the tubes prepared in this way and centrifuged at 800×g for 15 minutes (RT). After centrifugation, the following layering results from the top to the bottom:
plasma-PBMC-Histopaque-filter disc-Histopaque-erythrocytes and granulocytes. The supernatant plasma is aspirated. The PBMC are transferred together with the underlying Histopaque to a new 50 ml tube, the contents of two Leucosep tubes always being added to one 50 ml tube. The 50 ml tubes are then filled to 50 ml with PBS. This cell suspension is centrifuged at 300×g (RT) for 10 minutes.
The liquid supernatant is tipped off and the cell pellet is resuspended with a little PBS and subsequently filled to 50 ml with PBS. This washing step is repeated twice. The resulting pellet is taken up in a defined volume of medium (with additives). For the testing of the substances, PBMC are incubated for 18 hours with titrated concentrations of the test substances, e.g. in the presence or absence of TLR7 or TLR9 ligands. On the next day, the supernatants are investigated for the content of TNF-alpha or other cyto- or chemokines by means of specific ELISA. The metabolic activity of the treated cells is determined with the aid of Alamar Blue.

Structure (SMILES)	pEC50
Cn1ncc(NC(=O)c2csc(-c3ccncc3)n2)c1C(N)=O [Example 1.2, N-[5-(Aminocarbonyl)-1-methyl-1H-pyrazol-4-yl]-2-(4-pyridinyl)-4-thiazolecarboxamide]	5.62
Cc1ccc(C(N)=O)c(NC(=O)c2csc(-c3cccnc3)n2)c1 [Example 1.5, N-[2-(Aminocarbonyl)-5-methylphenyl]-2-(3-pyridinyl)-4-thiazolecarboxamide]	5.39
NC(=O)c1cc(Cl)ccc1NC(=O)c1csc(-c2cccnc2)n1 [Example 1.6, N-[2-(Aminocarbonyl)-4-chlorophenyl]-2-(3-pyridinyl)-4-thiazolecarboxamide]	4.52
Cc1ccc(C(N)=O)c(NC(=O)c2csc(-c3cnccc3C(F)(F)F)n2)c1 [Example 1.11, N-[2-(Aminocarbonyl)-5-methylphenyl]-2-[4-(trifluoromethyl)-3-pyridinyl]-4-thiazolecarboxamide]	4.52
CC(C)(C)c1cc(NC(=O)c2csc(-c3cccnc3)n2)c(C(N)=O)s1 [Example 1.17, N-[2-(Aminocarbonyl)-5-(1,1-dimethylethyl)-3-thienyl]-2-(3-pyridinyl)-4-thiazolecarboxamide]	5.59
NC(=O)c1cc(F)ccc1NC(=O)c1csc(-c2cccnc2)n1 [Example 1.18, N-[2-(Aminocarbonyl)-4-fluorophenyl]-2-(3-pyridinyl)-4-thiazolecarboxamide]	5.72
NC(=O)c1ncccc1NC(=O)c1csc(-c2ccncc2)n1 [Example 1.21, 3-[(2-Pyridin-4-ylthiazole-4-carbonyl)amino]pyridine-2-carboxamide]	5.28
NC(=O)c1ccncc1NC(=O)c1csc(-c2ccncc2)n1 [Example 1.22, 3-[(2-Pyridin-4-ylthiazole-4-carbonyl)amino]isonicotinamide]	5.15

The next compounds have a higher pEC50 than those just listed; values first:

pEC50	Structure (SMILES)
6.05	NC(=O)c1ccccc1NC(=O)c1csc(-c2cccnc2)n1 [Example 1.1, N-[2-(Aminocarbonyl)phenyl]-2-(3-pyridinyl)-4-thiazolecarboxamide]
5.89	NC(=O)c1ccccc1NC(=O)c1csc(-c2ccncc2)n1 [Example 1.3, N-[2-(Aminocarbonyl)phenyl]-2-(4-pyridinyl)-4-thiazolecarboxamide]
6.31	Cc1ccc(NC(=O)c2csc(-c3cccnc3)n2)c(C(N)=O)c1 [Example 1.4, N-[2-(Aminocarbonyl)-4-methylphenyl]-2-(3-pyridinyl)-4-thiazolecarboxamide]
5.74	NC(=O)c1ncccc1NC(=O)c1csc(-c2cccnc2)n1 [Example 1.7, 3-[(2-Pyridin-3-ylthiazole-4-carbonyl)amino]pyridine-2-carboxamide]
5.96	Cc1ccc(C(N)=O)c(NC(=O)c2csc(-c3ccncc3)n2)c1 [Example 1.8, N-[2-(Aminocarbonyl)-5-methylphenyl]-(4-pyridinyl)-4-thiazolecarboxamide]
5.89	Cc1ccc(C(N)=O)c(NC(=O)c2csc(-c3ccc(N)nc3)n2)c1 [Example 2.4, N-[2-(Aminocarbonyl)-5-methylphenyl]-2-(6-aminopyridin-3-yl)thiazole-4-carboxamide]
